Assay results as given in patent publication US10844044B2 (Vanderbilt University, priority 2018, dated 2020).
Read-outs that look alike come from different tables or passages of the source.

Legend:
[1] = system: MV4:11 human cancer cell lines; test: Anti-proliferative activity, CellTiter-Glo viability assay, 7 day protocol; assay type: cell-based; details: MV4:11 cells, 7 day incubation, read-out: GI50 on cellular proliferation of MV4:11 human cancer cell lines
Protocol: Viability assays are performed by dispensing […] into each well of an opaque 384-well plate and adding compounds at the indicated concentrations in a final volume of 32 μL and a final concentration of DMSO of 0.1% for all samples. After a set incubation period, 7 day protocol, the viability of cells in each well is assessed using the CellTiter-Glo assay (Promega), read on a GloMax 96 Microplane Luminometer (Promega). Serial dilutions of each cell type are included in all assays to generate standard curves and determine assay measurements are taken within the dynamic range of the instrument. GI50 values are calculated based on three biological replicates, each with three technical replicates. Data are expressed as mean plus/minus S.E.M.

[2] = target: WDR5 (Homo sapiens (Human), UniProt P61964); test: TR-FRET binding assay (displacement of 10mer-Thr-FAM probe from WDR5)
[3] = read-out: Ki for Inhibition of WDR5 by TR-FRET assay, TR-FRET, 10mer-Thr-FAM probe, WDR5-His tag 2 nM, pH 7.0
[4] = read-out: Ki for Inhibition of WDR5 by TR-FRET assay

SMILES	GI50 ([1]; Homo sapiens, MV4-11, 168 h) [nM]	Ki [2, 3] [nM]	other results
Cc1cc(CNC(=O)c2cc(Cn3ccn(C)c3=N)cc(-c3cccc4[nH]nc(C)c34)c2)ccc1Cl [Example 46, N-(4-chloro-3-methylbenzyl)-3-((2-imino-3-methyl-2,3-dihydro-1H-imidazol-1-yl)methyl)-5-(3-methyl-1H-indazol-4-yl)benzamide]	5900	1.3	
Cc1cc([C@@H](NC(=O)c2cc(Cn3ccoc3=N)cc(-c3cn(C)nc3C(F)(F)F)c2)C2CC2)ncc1F [Example 299, (S)—N-(Cyclopropyl(5-fluoro-4-methylpyridin-2-yl)methyl)-3-((2-iminooxazol-3(2H)-yl)methyl)-5-(1-methyl-3-(trifluoromethyl)-1H-pyrazol-4-yl)benzamide]	< 100	< 0.1	
Cn1ccn(Cc2cc(C(=O)NC3(c4cccc(Br)c4)CCC3)c(F)c(-c3ccc(F)cc3C(F)(F)F)c2)c1=N [Example 186, N-(1-(3-Bromophenyl)cyclobutyl)-2,4′-difluoro-5-((2-imino-3-methyl-2,3-dihydro-1H-imidazol-1-yl)methyl)-2′-(trifluoromethyl)-[1,1′-biphenyl]-3-carboxamide]	580	< 0.1	
Cn1cc(-c2cc(CN3CCOC3=N)cc(C(=O)N[C@H](c3ccc(Cl)c(Cl)c3)C3CC3)c2)c(C(F)(F)F)n1 [Example 269, (S)—V—N-(Cyclopropyl(3,4-dichlorophenyl)methyl)-3-((2-iminooxazolidin-3-yl)methyl)-5-(1-methyl-3-(trifluoromethyl)-1H-pyrazol-4-yl)benzamide]	< 100	< 0.1	
Cc1ccnc(C(NC(=O)c2cc(Cn3ccn(C)c3=N)cc(-c3ccc(F)cc3C)c2)C2CC2)c1 (stereo not drawn) [Example 9, N-(Cyclopropyl(4-methylpyridin-2-yl)methyl)-4′-fluoro-5-((2-imino-3-methyl-2,3-dihydro-1H-imidazol-1-yl)methyl)-2′-methyl-[1,1′-biphenyl]-3-carboxamide]	220	0.15	
CN1CCN(Cc2cc(C(=O)N[C@H](c3ccc(F)c(Cl)c3)C3CC3)cc(-c3cccnc3C(F)(F)F)c2)C1=N [Example 219, (S)—N-((3-chloro-4-fluorophenyl)(cyclopropyl)methyl)-3-((2-imino-3-methylimidazolidin 1-yl)methyl)-5-(2-(trifluoromethyl)pyridin-3-yl)benzamide]	< 100	< 0.1	
CCn1cc(-c2cc(CN3CCOC3=N)cc(C(=O)N[C@H](c3ccc(Cl)c(Cl)c3)C3CC3)c2)c(C(F)(F)F)n1 [Example 281, (S)—N-(Cyclopropyl(3,4-dichlorophenyl)methyl)-3-(1-ethyl-3-(trifluoromethyl)-1H-pyrazol-4-yl)-5-((2-iminooxazolidin-3-yl)methyl)benzamide]	< 100	< 0.1	
Cc1cc([C@@H](NC(=O)c2cc(CN3CCCC3=N)cc(-c3cccnc3C(F)(F)F)c2)C2CC2)ccc1F [Example 334, (S)—N-(Cyclopropyl(4-fluoro-3-methylphenyl)methyl)-3-((2-iminopyrrolidin-1-yl)methyl)-5-(2-(trifluoromethyl)pyridin-3-yl)benzamide]	< 100	< 0.1	
CCn1cc(-c2cc(Cn3ccn(C4CC4)c3=N)cc(C(=O)N[C@H](c3ccc(F)c(Cl)c3)C3CC3)c2)c(C(F)(F)F)n1 [Example 202, (S)—N-((3-Chloro-4-fluorophenyl)(cyclopropyl)methyl)-3-((3-cyclopropyl-2-imino-2,3-dihydro-1H-imidazol-1-yl)methyl)-5-(1-ethyl-3-(trifluoromethyl)-1H-pyrazol-4-yl)benzamide]	< 100	< 0.1	
CCn1cc(-c2cc(Cn3ccoc3=N)cc(C(=O)N[C@H](c3ccc(Cl)c(Cl)c3)C3CC3)c2)c(C(F)(F)F)n1 [Example 280, (S)—N-(Cyclopropyl(3,4-dichlorophenyl)methyl)-3-(1-ethyl-3-(trifluoromethyl)-1H-pyrazol-4-yl)-5-((2-iminooxazol-3(2H)-yl)methyl)benzamide]	< 100	< 0.1	
CCOC(=O)/N=c1\n(C)ccn1Cc1cc(C(=O)NCc2ccc(Cl)c(Cl)c2)cc(-c2ccc(F)nc2C)c1 [Example 122, Ethyl (1-(3-((3,4-dichlorobenzyl)carbamoyl)-5-(6-fluoro-2-methylpyridin-3-yl)benzyl)-3-methyl-1,3-dihydro-2H-imidazol-2-ylidene)carbamate]	4200		Ki [2, 4]: > 33 nM
Cn1cc(-c2cc(Cn3ccn(C)c3=N)cc(C(=O)N[C@H](c3ccc(Cl)c(Cl)c3)C3CC3)c2)c(C(F)(F)F)n1 [Example 157, (S)—N-(Cyclopropyl(3,4-dichlorophenyl)methyl)-3-((2-imino-3-methyl-2,3-dihydro-1H-imidazol-1-yl)methyl)-5-(1-methyl-3-(trifluoromethyl)-1H-pyrazol-4-yl)benzamide]		< 0.1	GI50 [1]: 100 nM
Cc1cc([C@@H](NC(=O)c2cc(Cn3ccn(C)c3=N)cc(-c3ccc(F)cc3C#N)c2)C2CC2)ccc1F [Example 185, (S)-2′-Cyano-N-(cyclopropyl(4-fluoro-3-methylphenyl)methyl)-4′-fluoro-5-((2-imino-3-methyl-2,3-dihydro-1H-imidazol-1-yl)methyl)-[1,1′-biphenyl]-3-carboxamide]	610	< 0.1	
CCn1ccn(Cc2cc(C(=O)N[C@H](c3ccc(F)c(C)c3)C3CC3)cc(-c3cccnc3C(F)(F)F)c2)c1=N [Example 114, (S)—N-(Cyclopropyl(4-fluoro-3-methylphenyl)methyl)-3-((3-ethyl-2-imino-2,3-dihydro-1H-imidazol-1-yl)methyl)-5-(2-(trifluoromethyl)pyridin-3-yl)benzamide]	300		Ki [2, 4]: < 0.1 nM
CCOc1c(C(=O)N[C@H](c2ccc(F)c(C)c2)C2CC2)cc(Cn2cc(F)ccc2=N)cc1-c1cn(C)nc1C(F)(F)F [Example 349, (S)—N-(Cyclopropyl(4-fluoro-3-methylphenyl)methyl)-2-ethoxy-5-((5-fluoro-2-iminopyridin-1(2H)-yl)methyl)-3-(1-methyl-3-(trifluoromethyl)-1H-pyrazol-4-yl)benzamide]			GI50 ([1]; Homo sapiens, 168 h): < 100 nM; Ki [2, 4]: < 0.1 nM
CCn1cc(-c2cc(Cn3ccn(C)c3=N)cc(C(=O)N[C@H](c3ccc(Cl)c(Cl)c3)C3CC3)c2)c(C(F)(F)F)n1 [Example 161, (S)—N-(Cyclopropyl(3,4-dichlorophenyl)methyl)-3-(1-ethyl-3-(trifluoromethyl)-1H-pyrazol-4-yl)-5-((2-imino-3-methyl-2,3-dihydro-1H-imidazol-1-yl)methyl)benzamide]	< 100		Ki [2, 4]: < 0.1 nM
CCn1cc(-c2cc(CN3CCN(C)C3=N)cc(C(=O)N[C@H](c3ccc(F)c(F)c3)C3CC3)c2)c(C(F)(F)F)n1 [Example 213, (S)—N-(Cyclopropyl(3,4-difluorophenyl)methyl)-3-(1-ethyl-3-(trifluoromethyl)-1H-pyrazol-4-yl)-5-((2-imino-3-methylimidazolidin-1-yl)methyl)benzamide]	< 100		Ki [2]: < 0.1 nM
Cc1cc([C@@H](NC(=O)c2cc(Cn3cccc(F)c3=N)cc(-c3cn(C)nc3C(F)(F)F)c2)C2CC2)ccc1F [Example 351, (S)—N-(Cyclopropyl(4-fluoro-3-methylphenyl)methyl)-3-((3-fluoro-2-iminopyridin-1(2H)-yl)methyl)-5-(1-methyl-3-(trifluoromethyl)-1H-pyrazol-4-yl)benzamide]	< 100	< 0.1	
